Laboratory results published in patent US20140186271A1, “REDUCING DENTAL CARIES” (UNIVERSITY OF ROCHESTER, priority 2011, published 2014).
Converted amounts (≈) assume the structure as drawn.

Experiments:
Assay type in all cases: cell-based
S. mutans = experiment: minimum inhibitory concentration against a panel of human pathogens; conditions: Streptococcus mutans
Method: (§1) Using well established methodologies, the minimum inhibitory concentration of simvastatin was determined against a panel of human pathogens.

Klebsiella = experiment: as above
Method: as §1

E. faecalis = experiment: as above; conditions: Enterococcus faecalis
Method: as §1

P. aeruginosa = experiment: as above; conditions: Pseudomonas aeruginosa
Method: as §1

E. faecium = experiment: as above; conditions: Enterococcus faecium
Method: as §1

S. aureus = experiment: as above; conditions: Staphylococcus aureus
Method: as §1

[1] = system: Streptococcus mutans UA159; experiment: growth of S. mutans in planktonic culture (optical density at 600 nm, BHI medium); conditions: rich medium, FIG. 1
Method: Bacterial Strain. The strain of Streptococcus mutans used in these experiments is referred to as UA159, the genomic type strain of these organisms (Murchison et al., Infect. Immun. 54(2):273-82 (1986); Ajdic et al., Proc. Natl. Acad. Sci. USA 99(22):14434-9 (2002)). Growth experiments. Two types of growth experiments were conducted: growth of the organism in planktonic culture and growth of the organism in a mono-species biofilm culture. In the planktonic culture experiments, the effects of simvastatin concentration on the growth ability of Streptococcus mutans UA159 was determined. In the second set of experiments, the effects of simvastatin concentration on the ability of S. mutans to produce extracellular polysaccharides (EPS), which is highly related to its ability to grow and survive on the surfaces of teeth (Yamashita et al., Infect. Immun 61(9):3811-7 (1993)), was determined. The planktonic experiments were conducted by growing S. mutans in Brain Heart Infusion medium (BHI) supplemented with specific concentrations of simvastatin dissolved in 1% ethanol/99% water. Simvastatin was obtained from Sigma Chemical Co. (St. Louis, Mo.). Growth was monitored as increasing optical density at 600 nm, using a BioScreen C automated-recording instrument, set at 37° C. and with shaking set at 10 seconds, every 15 minutes, to ensure suspension of the culture (Growth Curves USA, N.J.). […]

Which MIC (S. mutans) does the source give for `CCC(C)(C)C(=O)O[C@H]1C[C@@H](C)C=C2C=C[C@H](C)[C@H](CC[C@@H]3C[C@@H](O)CC(=O)O3)[C@H]21` [simvastatin] here?
The MIC was 16 µg/mL (≈ 38.2 µM).

And the MIC (Klebsiella)?
Its MIC is 64 µg/mL (≈ 153 µM).

And the MIC (E. faecalis)?
Its MIC is 64 µg/mL (≈ 153 µM).

And the MIC (P. aeruginosa)?
The MIC was greater than 256 µg/mL.

What about the MIC (E. faecium) of the same molecule?
Its MIC is 64 µg/mL (≈ 153 µM).

And the MIC (S. aureus)?
Its MIC is 64 µg/mL (≈ 153 µM).

And the “concentration at which growth was effectively halted” value [1]?
Its value is no less than 64 µg/mL.
